Values of other authors, collected in patent publication US20100022576A1 (priority 2006, published 2010).

Key:
[1] = in vivo
human mast cells = settings: in vitro

## Clc1ccc2c(c1)CCc1cccnc1C2=C1CCNCC1 [desloratadine]
[1]
  Effect of food and grapefruit juice on bioavailability: Neither food nor grapefruit juice has an effect
Human mast cells
  Release of histamine from human mast cells: inhibits release of histamine from human mast cells
